From patent publication US20140314787A1, “Treatment for neurodegenerative diseases” (NOVARTIS FORSCHUNGSSTIFTUNG, ZWEIGNIEDERLASSUNG, FRIEDRICH …, priority 2011, published 2014)

How the values were obtained:
VCP [1] = biological target: T1, VCP (Homo sapiens, UniProt P55072); conditions: literature (Chou T F et al. 2011); cited from earlier work
[2] = tested on: FSOD mice (mutant SOD1(G93A)); test: climb test of motor performance in FSOD mice; assay type: in vivo; conditions: for motor performance: figure legend (FIG. 9, FIG. 10)
Method: Climb test: Neurodegenerative status of the mice was tested using a climb test device developed by some of the inventors. This device is based on a flappable wire meshwork platform (10×10 cm) suspended from one corner by a rigid boom. The platform is suspended about 40 cm above a surface. The platform is fully open and the test is performed in ambient light. During the test, mice are prevented of climbing the boom by a transparent plastic disk. For the performance of the test, mice were gently transferred to the platform and allowed to explore it for 2 minutes. […] As soon as the mice reached the upper surface of the grid (all four limbs on the same side), the grid was gently flipped over so that the mice were not be allowed to rest. The number of performed climbs in the test period was counted, the test period being 11 minutes (5 min and 30 min variants have been tested as well). The climb movement to be performed by the mice involves a forceful yet brief push with fore- and hind-limbs, thus mimicking short-lived but powerful movements that are known to recruit fast motoneurons.
At day P27, mice were treated either with Eer-I (1 μg/g in 150 mM NaCl, s.c., daily) or with saline. Mice were tested at P29 and at P32.
On day P47 treatment was stopped and the mice were tested 2 days later.
Treatment dose was 1 μg/g in 150 mM NaCl, s.c., daily. Mice were treated and tested at baseline (p32), and thereafter tested in the climb test at 38, 43, 56 days of age.

VCP [3] = test: VCP immunostaining intensity in lumbar spinal cord motoneurons; assay type: in vivo, mice
Method: After washing in PBS, lumbar (L2-L5) spinal cord was cryoprotected overnight in 30% sucrose. Lumbar spinal cord was embedded in OCT and sectioned at 50 μm. Sections were blocked in PBS-3% BSA −0.3% Triton X 100, and incubated double-overnight at 4 C in the same buffer plus anti VCP monoclonal antibody (Affinity Bioreagents) diluted 1:10,000 and polyclonal anti VAChT (Sigma) 1:1000. Sections were then briefly washed with PBS and incubated for 120 min at RT with goat-anti-rabbit (Alexa 647, Invitrogen) or goat-anti-mouse (Alexa 488, Invitrogen). Confocal images were acquired using an Zeiss LSM700 microscope, fitted with a 20×air objective. Images were processed using Imaris software. For the analysis of VCP labeling intensities, data were acquired with identical confocal settings, ensuring that signals at the brightest cells were not saturated, and that background levels outside clusters were still detectable. Images were then analyzed quantitatively using Image-Pro 5 software (Media Cybernetics). Signal intensities were acquired within areas inside cells, excluding areas lacking signal; background levels outside cells were subtracted from these values.

[4] = tested on: Mutant SOD1(G93A) transgenic mice; test: survival of mutant SOD1(G93A) transgenic mice; assay type: in vivo
Method: Survival was determined up to the day of death or euthanasia (according to the termination criteria of a righting time >30 sec).

[5] = body weight recording in treated mice; assay type: in vivo
Method: Body weight was recorded at P45, P65, P85 and then at 5-7 days intervals. Five mice per group were followed, representative individuals are shown.

[6] = tested on: FSOD mice (mutant SOD1(G93A)); test: grid test of motor performance / muscle strength in FSOD mice; assay type: in vivo
Method: Motor performance was assessed by grid test, a standard task for the quantification of muscle strength and neurological impairment.

VCP [7] = biological target: T1, VCP; conditions: literature (Wang Q et al. 2008, 2010); cited from earlier work
[8] = FSOD mice treated from P20, s.c. daily
[9] = FSOD mice treated from P63, s.c. daily
[10] = 1 μg/g s.c. daily from weaning (P20), vs untreated

T1 sequence (P55072 whole entry): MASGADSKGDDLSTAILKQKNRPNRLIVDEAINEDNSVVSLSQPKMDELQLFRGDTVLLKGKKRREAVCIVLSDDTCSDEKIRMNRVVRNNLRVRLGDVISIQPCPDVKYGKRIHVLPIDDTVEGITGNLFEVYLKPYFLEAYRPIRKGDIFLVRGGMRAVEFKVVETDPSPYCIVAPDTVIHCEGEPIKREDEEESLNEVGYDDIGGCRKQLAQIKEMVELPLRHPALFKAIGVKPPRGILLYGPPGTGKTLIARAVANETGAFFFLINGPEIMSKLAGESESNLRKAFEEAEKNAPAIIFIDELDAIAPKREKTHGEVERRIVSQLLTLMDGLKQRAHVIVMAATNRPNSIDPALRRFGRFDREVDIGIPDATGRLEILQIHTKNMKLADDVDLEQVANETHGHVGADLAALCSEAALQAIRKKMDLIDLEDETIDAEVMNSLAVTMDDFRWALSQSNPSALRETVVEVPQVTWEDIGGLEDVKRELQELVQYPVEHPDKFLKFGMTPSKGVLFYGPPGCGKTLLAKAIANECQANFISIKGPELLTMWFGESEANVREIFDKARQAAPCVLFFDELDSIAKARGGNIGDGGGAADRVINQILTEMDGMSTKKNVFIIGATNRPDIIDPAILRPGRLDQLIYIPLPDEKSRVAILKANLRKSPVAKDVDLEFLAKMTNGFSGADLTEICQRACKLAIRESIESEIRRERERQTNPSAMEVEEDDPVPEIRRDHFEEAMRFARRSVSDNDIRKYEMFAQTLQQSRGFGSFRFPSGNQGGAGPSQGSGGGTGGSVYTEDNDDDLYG

c1ccc(CNc2nc(NCc3ccccc3)c3ccccc3n2)cc1 [DBEQ, N^2,N^4-Dibenzylquinazoline-2,4-diamine]
VCP inhibition (mode) (VCP [1]): reversible, ATP-competitive direct VCP inhibitor | motor performance ([2]; FSOD mice): improves motor performance | motor performance in the climb test ([2]; three FSOD mice, 1 μg/g s.c. daily after day 29, tested at P31, P34, 37 and 45): progressive improvement in motor performance reaching the range of wt mice

CC1(C)C(N(O)C(=O)Nc2ccc(Cl)cc2)N(c2ccc(Cl)cc2)C(=O)N1CC(=O)NN=CC=Cc1ccc([N+](=O)[O-])o1 (stereo not shown) [Eer-I, 3-(4-Chlorophenyl)-4-[[[(4-chlorophenyl)amino]carbonyl]hydroxyamino]-5,5-dimethyl-2-oxo-1-imidazolidineacetic acid 2-[3-(5-nitro-2-furanyl)-2-propen-1-ylidene]hydrazide]
average cytoplasmic VCP staining intensity in motoneurons (VCP [3]; FSOD mice treated with Eer-I vs FSOD and WT controls, lumbar spinal cord): significantly reduced (to an extent comparable with WT) | VCP upregulation (VCP [3]; FSOD mice, FIG. 11 legend): reverses VCP upregulation | survival vs untreated mutant mice ([4]; 1 μg/g s.c. daily since weaning (P20), n=7 per group): survived significantly longer | survival ([4]; FSOD mice, FIG. 6 legend): prolongs FSOD mice survival | body weight loss ([5]; FIG. 5 legend): delays body weight loss | bodyweight of FSOD mice ([5]; 1 μg/g s.c. daily from P63): stabilized at a level lower than the littermates treated from weaning | bodyweight of FSOD mice ([5]; 1 μg/g s.c. daily from weaning (P20)): stable bodyweight until day P140-145 | body weight of wild type mice ([5]; wild type mice, 1 μg/g s.c. daily): expected progressive increase in body weight | overt toxicity of the treatment ([5]; wild type mice, 1 μg/g s.c. daily, from body weight): lack of overt toxicity | climb performance ([2]; FSOD mice (n=4), 1 μg/g s.c. daily from P18, tested at P27, P37 and P47): comparable to wt mice | climb performance upon resumption of the treatment ([2]; FSOD mice (n=4), after withdrawal): quickly improved | treatment time until performance comparable with that before withdrawal ([2]; FSOD mice (n=4), resumption of treatment after withdrawal): 2 to 5 days | climb performance after 2 days of withdrawal of treatment ([2]; FSOD mice (n=4), treatment stopped on P47, tested at P49): sharp drop in performance, down to a level comparable with that of untreated FSOD mice of the same age | climb test performance (climb scores) [2, 8]: markedly preserved performance, with climb scores comparable with WT mice | duration of stable climb test performance [2, 8]: stable up to day P65 | climb score at day P85 [2, 9]: returning in the range of untreated FSOD mice | climb test performance [2, 9]: marked but transient improvement in performance | increase of climb score [2, 9]: up to four-fold | climb test performance after 5 days of treatment ([2]; FSOD mice, 1 μg/g s.c. daily from P27): level comparable with wt | climb test performance ([2]; FSOD mice, 1 μg/g s.c. daily from P27, tested at P29 and P32, vs saline): marked improvement in performance | performance in the climb test ([2]; FSOD mice, FIG. 4 legend): markedly improve | performance in the climb test ([2]; FSOD mice, FIG. 7 legend): quickly restores performance | grid test performance soon after beginning of treatment ([6]; 1 μg/g s.c. daily from P63): fast improvement in performance | grid test performance vs untreated counterparts ([6]; 1 μg/g s.c. daily from P63): performed significantly better than their untreated counterparts | decline in muscle strength over time (grid test) [6, 10]: significantly slower decline | grid test performance at the earliest time point [6, 10]: better performance | motor disability ([6]; FIG. 3 legend): delays motor disability | degradation of target misfolded proteins whose translocation and disposal is dependent upon VCP (VCP [7]): prevent the degradation of target misfolded proteins

O=[N+]([O-])C=Cc1ccc2c(c1)OCO2 [Syk-inhibitor III, 3,4-Methylenedioxy-β-nitrostyrene]
VCP inhibition (mode) (VCP [1]): substantial efficacy as an irreversible inhibitor of the D2 ATPase site on VCP | motor performance ([2]; FSOD mice): improves motor performance | performance in the climb test ([2]; two mice, 1 μg/g s.c. daily, baseline p32, tested at 38, 43, 56 days of age): markedly improved and reached the range of performance for WT mice
